Reference: US9512095B2, “Polymorph forms of desazadesferrithiocin analogs” (Ferrokin Biosciences, Inc., priority 2013, dated 2016)
Entries after “also recorded” stand apart in the source; their conditions may differ.

Columns and labels:
[1] = Humidity exposure / comparative hygroscopicity study of solid forms (weight change, appearance, XRPD); type: physicochemical
[2] = Form inter-conversion by stirring in TBME/ethanol/water (20/5/1, v/v/v); type: physicochemical; conditions: TBME/ethanol/water (20/5/1, v/v/v) at 18-23° C. for 4 days
Experimental: A mixture of Forms A, B, C, and D (present in equal amounts) of Compound 1 was stirred in TBME/ethanol/water (20/5/1, v/v/v) at 18-23° C. for 4 days.
A reaction vessel was charged with a mixture of Forms A-D of Compound 1 (25 mg, 1.0 wt.). A solution of TBME/EtOH/water (20/5/1, 10 vol) was added, and was stirred at 18-23° C. for 4 days. The solid was isolated by filtration, washed with recycled mother liquors, and dried under vacuum under a N2 atmosphere.
A reaction vessel was charged with Form A of Compound 1 (25 mg, 1.0 wt.). A solution of TBME/EtOH/water (20/5/1, 10 vol) was added, and was stirred at 18-23° C. for 4 days. The solid was isolated by filtration, washed with recycled mother liquors, and dried under vacuum under a N2 atmosphere.
A reaction vessel was charged with Form B of Compound 1 (25 mg, 1.0 wt.). A solution of TBME/EtOH/water (20/5/1, 10 vol) was added, and was stirred at 18-23° C. for 4 days. The solid was isolated by filtration, washed with recycled mother liquors, and dried under vacuum under a N2 atmosphere.
A reaction vessel was charged with Form C of Compound 1 (25 mg, 1.0 wt.). A solution of TBME/EtOH/water (20/5/1, 10 vol) was added, and was stirred at 18-23° C. for 4 days. The solid was isolated by filtration, washed with recycled mother liquors, and dried under vacuum under a N2 atmosphere.
A reaction vessel was charged with Form D of Compound 1 (25 mg, 1.0 wt.). A solution of TBME/EtOH/water (20/5/1, 10 vol) was added, and was stirred at 18-23° C. for 4 days. The solid was isolated by filtration, washed with recycled mother liquors, and dried under vacuum under a N2 atmosphere.

[3] = Drying of Form A under vacuum at elevated temperature (weight loss, XRPD, HPLC/1H NMR); type: physicochemical
Experimental: Form A (1.0 g) was dried at 60° C. under reduced pressure for 24 h. During this time the sample decreased in weight by −7.3% w/w.
A sample of Form A was dried for 48 h under vacuum at 60° C. and reweighed. The material decreased in weight by 9.30% w/w.
The reactions conditions were repeated on a 1.0 g scale: a sample of Form A was dried for 24 hr under vacuum at 60° C. and reweighed. The material decreased in weight by 7.30% w/w. […] The material was allowed to cool to ambient temperature under vacuum before releasing the vacuum with nitrogen and transferring the Form D into a poly-tub under nitrogen.

[4] = Humidity exposure / comparative hygroscopicity study of solid forms (weight change, appearance, XRPD); type: physicochemical; conditions: for XRPD form: 48 hrs; for XRPD (final form): 18-23° C., 48 h
Experimental: X-Ray powder diffraction (XRPD) analysis was carried out using a Bruker D2 Phaser powder diffractometer employing a LynxEye detector. The samples underwent minimum preparation but, if necessary they were milled in a pestle and mortar before acquisition.
The samples were continuously spun during data collection and scanned using a step size of 0.02° two theta (2θ) between the range of 4°-40° two theta and a count time of 10 seconds per step. Data was processed using Bruker Diffrac. Suite.
Samples of Form D were placed in humidity chambers at 45%, 60% and 75% RH at 18-23° C. and their weight changes were monitored at intervals up to 48 h.
Accurately weighed samples of Form D were placed in humidity chambers at 45%, 60% and 75% R.H. and monitored for weight changes over 48 h.

[5] = Human pharmacokinetics: open-label, randomized relative bioavailability study of Compounds 1 and 3 (plasma total, unbound and iron bound Compound 2); type: in vivo; conditions: healthy adults, oral capsules; plasma Compound 2; relative to Compound 3, see Table 14
Experimental: The purpose of this Example is to characterize the pharmacokinetic profiles of Compound 1 (disodium salt) and its magnesium hydroxide salt counterpart, Compound 3:
This human study is part of an open-label, randomized, single dose, 3-period, relative bioavailability study in up to 28 healthy adults 18-65 years of age inclusive, investigating the pharmacokinetics, safety, and tolerability of Compounds 1 and 3. In this study, each study compound is administered as a single dose of 36.2 mg/kg/day or 18.1 mg/kg/day, respectively (as free acid), and as 2 doses of 36.2 mg/kg or 18.1 mg/kg, respectively (as free acid), given 12 hours apart. Table 13 provides dosages relative to free acid content.
The magnesium hydroxide salt (Compound 3) is administered as oral capsules in the following strengths: 50, 100, 200, 375 and 500 mg. The disodium salt (Compound 1) is administered as oral capsules in the following strengths: 54.1, 272.8 and 408.7 mg.
There will be 3 treatment periods in this study and 4 possible treatments. […]
Actual pharmacokinetic blood sample collection times versus time of dosing will be monitored. […]

[6] = 75% relative humidity (RH) at 15-25° C. for 1-2 days

## COCCOCCOCCOc1cccc(C2=N[C@@](C)(C(=O)[O-])CS2)c1[O-].[Na+].[Na+] [Form A, (S)-2-(2-hydroxy-3-(2-(2-(2-methoxyethoxy)ethoxy)ethoxy)phenyl)-4-methyl-4,5-dihydrothiazole-4-carboxylate disodium Form A polymorph]
[1]; 43% RH at 50° C. for 5 days
  Form after exposure to humidity: remained as Form A
[1]; [6]
  Form after exposure to humidity: remained as Form A
[2]
  Output form after stirring in solvent: remained Form A
[3]; 40° C. under vacuum for 48 h
  Form after drying: partial transformation of Form A to Form D
[3]; 60° C. under vacuum for 24 hours
  Form after drying: converted to Form D; also recorded: converted into Form D
[3]; 60° C. under vacuum for 48 h
  Chemical stability on drying (HPLC and 1H NMR): decomposition had not occurred
  Decrease in weight on drying: 9.30 % w/w
  Form after drying (XRPD): Form D

## COCCOCCOCCOc1cccc(C2=N[C@@](C)(C(=O)[O-])CS2)c1[O-].[Na+].[Na+] [Form B, (S)-2-(2-hydroxy-3-(2-(2-(2-methoxyethoxy)ethoxy)ethoxy)phenyl)-4-methyl-4,5-dihydrothiazole-4-carboxylate disodium Form B polymorph]
[1]; [6]
  Form after exposure to humidity: re-generated Form A
[2]
  Output form after stirring in solvent: converted into Form A

## COCCOCCOCCOc1cccc(C2=N[C@@](C)(C(=O)[O-])CS2)c1[O-].[Na+].[Na+] [Form C, (S)-2-(2-hydroxy-3-(2-(2-(2-methoxyethoxy)ethoxy)ethoxy)phenyl)-4-methyl-4,5-dihydrothiazole-4-carboxylate disodium Form C polymorph]
[1]; 75% RH at 15-25° C. for 22 h
  Form after exposure to humidity: re-generated Form A
  Weight gain on exposure to humidity: 18.5 % w/w
[2]
  Output form after stirring in solvent: converted into Form A

## COCCOCCOCCOc1cccc(C2=N[C@@](C)(C(=O)[O-])CS2)c1[O-].[Na+].[Na+] [Form D, (S)-2-(2-hydroxy-3-(2-(2-(2-methoxyethoxy)ethoxy)ethoxy)phenyl)-4-methyl-4,5-dihydrothiazole-4-carboxylate disodium Form D polymorph]
[1]; 43% RH, 18-23° C., 48 h
  XRPD (final form): Form A
[2]
  Output form after stirring in solvent: converted into Form A
[4]; 45% R.H.
  XRPD form: Form A
[4]; 60% R.H.
  XRPD form: Form A
[4]; 60% RH
  XRPD (final form): Form A
[4]; 75% R.H.
  XRPD form: Form A
[4]; 75% RH
  XRPD (final form): Form A
[4]; exposed to ≧43% relative humidity
  Form after exposure to humidity: reverts to Form A

## COCCOCCOCCOc1cccc(C2=N[C@@](C)(C(=O)[O-])CS2)c1[O-].[Na+].[Na+] [Compound 1, (S)-2-(2-hydroxy-3-(2-(2-(2-methoxyethoxy)ethoxy)ethoxy)phenyl)-4-methyl-4,5-dihydrothiazole-4-carboxylate disodium]
[5]
  AUC higher than Compound 3: ~22%
  Cmax higher than Compound 3: ~35%
